Data as given in US7662988B2, “Ester compound and its use” (Sumitomo Chemical Company, Limited, priority 2006, dated 2010).

Columns and labels:
Adult houseflies [1] = experiment: Housefly KT90 test, 0.00625% oil solution spray in cubic chamber; assay type: in vivo; settings: 0.7 ml of 0.00625% oil solution sprayed in 70 cm cubic chamber, counted up to 10 minutes after spraying
Method: A solution of 0.00625 part of the present compound (A) in 10 parts of dichloromethane was mixed with 89.99375 parts of deodorized kerosene to obtain a 0.00625% oil solution.
Adult houseflies (5 males and 5 females) were left in a cubic chamber (70 cm at each side). Into the chamber, 0.7 ml of 0.00625% oil solution of the present compound (A) prepared above was sprayed into the chamber with a spray gun at a pressure of 8.8×10^4 Pa from a small window on the side of the chamber. Then, up to 10 minutes after spraying, the number of the knocked-down insects was counted with time (repeated twice). The time required for knocking down 90% of the tested insects (KT90) was calculated from the results.
The same tests were carried out except for using the comparative compound 1 and 4-methoxymethyl-2,3,5,6-tetrafluorobenzyl (1R)-trans-3-(2-cyano-1-propenyl)-2,2-dimethylcyclopropanecarboxylate represented by the formula:
[drawing 8] (The compound described in JP 2004-2363 A; hereinafter, referred to as the comparative compound 2.).

Adult houseflies [2] = experiment: Housefly knock-down test, 0.025% oil solution spray in cubic chamber; assay type: in vivo; settings: 0.7 ml of 0.025% oil solution sprayed in 70 cm cubic chamber, 2 minutes after spraying
Method: A solution of 0.025 part of the present compound (A) in 10 parts of dichloromethane was mixed with 89.975 parts of deodorized kerosene to obtain a 0.025% oil solution.
Adult houseflies (5 males and 5 females) were left in a cubic chamber (70 cm at each side). Into the chamber, 0.7 ml of 0.025% oil solution of the present compound (A) prepared above was sprayed with a spray gun at a pressure of 8.8×10^4 Pa from a small window on the side of the chamber. Two minutes after spraying, the number of the knocked-down insects was counted (repeated twice).
The same test was carried out except that 4-propargyl-2,3,5,6-tetrafluorobenzyl (1R)-trans-3-(2-methyl-1-propenyl)-2,2-dimethylcyclopropanecarboxylate represented by the formula:
[drawing 7] (The compound described as compound 2 in TABLE 1 of EP 0196156 A1; hereinafter, referred to as the comparative compound 1) was used instead of the present compound (A).
Knock-down ratios, i.e., ratios of the number of knocked-down insects 2 minutes after the spraying to the number of tested insects, are shown in Table 1.

Row | SMILES | KT90 (minutes), time required for knocking down 90% of the tested insects (Adult houseflies [1]) | Knock-down ratio (%) (Adult houseflies [2])
1 | C#CCc1c(F)c(F)c(COC(=O)[C@@H]2[C@@H](C=C(C)C)C2(C)C)c(F)c1F [Comparative compound 1, 4-propargyl-2,3,5,6-tetrafluorobenzyl (1R)-trans-3-(2-methyl-1-propenyl)-2,2-dimethylcyclopropanecarboxylate] | Not less than 10 minutes | 0%
2 | COCc1c(F)c(F)c(COC(=O)[C@@H]2[C@@H](C=C(C)C#N)C2(C)C)c(F)c1F [Comparative compound 2, 4-methoxymethyl-2,3,5,6-tetrafluorobenzyl (1R)-trans-3-(2-cyano-1-propenyl)-2,2-dimethylcyclopropanecarboxylate] | 4.3 min | –
3 | C#CCc1c(F)c(F)c(COC(=O)[C@@H]2[C@@H](C=C(C)C#N)C2(C)C)c(F)c1F [Present compound (A), 4-propargyl-2,3,5,6-tetrafluorobenzyl (1R)-trans-3-(2-cyano-1-propenyl)-2,2-dimethylcyclopropanecarboxylate] | 2.0 min | 100%
